Each structure is given as a SMILES string. pIC50: −log10 of the molar value. Like-named read-outs stand apart in the source and are kept apart here.

The test system of one assay is motor coordination. The experiment in a line: Horizontal screen test for motor coordination. The format is in vivo, mouse (male CD1). As to conditions: Mus musculus, CD1 mice.
In assay [1] the test system is metrazol-induced convulsions. Briefly: Suppression of metrazol-induced convulsions (antimetrazol). In kind it is in vivo, mouse (male CD1). Particulars: Mus musculus, 0.5 h; IP; clonic convulsions, 30 min observation. Here is the method: Selected compounds of the invention were tested for their ability to reduce metrazol-induced convulsions in mice (Swinyard, E. A. J. Am. Pharm Assoc. 1949, 38, 201). Male CD1 mice, were fasted at least 16 hours, were divided into equal groups and test compounds or vehicle were administered parenterally. Water was not withheld except during the period of observations. At the time of suspected peak activity, anti-pentylenetetrazol (anti-metrazol) activity was evaluated by the subcutaneous administration of the CD90 dose of metrazol (the dose of metrazol was determined from the dose-response curve producing clonic convulsions in 90% of animals that received the corresponding vehicle for this experiment). Metrazol was dissolved in 0.9% sodium chloride solution, and its dose volume was 10 ml/kg. Animals were housed individually for observation of clonic convulsions, tonic convulsions and death for a period of 30 min. Test compounds that blocked the clonic seizure component of the convulsion in at least 50% of the animals were considered active. The biological assay was considered to be valid if the effects of a known anticonvulsant (positive control) were detected, within the same experiment. Activity was reported as percent reduction of clonic convulsions from the vehicle group. The ED50 values of active compounds were calculated by the method of probits (Finney, D. J. 1971. Probit Analysis. London: Cambridge University Press) and are listed in Tables 1.

For assay [2], the system named is metrazol-induced convulsions. The assay is described as above. In kind it is in vivo, mouse (male CD1). As to conditions: Mus musculus, 0.5 h; PO; clonic convulsions, 30 min observation.
The test system of assay [3] is anxiety in the adult male rat. The experiment in a line: Suppression of anxiety in the adult male rat (Vogel anticonflict test). The format is in vivo. Particulars: read-out: Anticonflict MED. Here is the method: The anxiolytic activity of selected compounds of the invention was assessed by determining their ability to encourage behavior that had been suppressed by punishment (Vogel, J. R. et al. Psychopharmacology 1971, 21, 1). Male rats were deprived of water for 48 hours and were deprived of food for 24 hours prior to testing. After the first 24 hours of water deprivation, they were placed in the conflict chamber for a training period; wherein, they were allowed 200 unpunished licks from a bottle containing tap water. The experiment was run the next day. At the expected time of peak activity, the animals were placed in the chamber and allowed access to tap water. […] Their first lick initiates a 3-min test session. Subsequently,every 20th lick was punished by a 0.2-s shock delivered via the stainless-steel drinking-tube. Vehicle-treated control animals generally were willing to accept a median number of 3 to 8 shocks per test session. […] The Wilcoxon rank-sum test (Mann-WhitneyU-test) was used to test for an increase (p<0.05, 1-tailed) in the median number of shocks in drug-treated groups, compared to a concurrently run vehicle-treated group. The biological assay is considered to be valid if the effects of a known anxiolytic (positive control) are detected, within the same experiment. A compound was considered active if there is a significant difference in the median number of shocks tolerated between the drug-treated group and the control group. The MED was defined as the minimum dose of the drug-treatment as analyzed using the Wilcoxon rank-sum test (SAS; Statistical Analysis System, version 5.16). If the MED value is greater than 10, an active dose of the compound being tested had not been determined.

Assay [4] concerns the target benzodiazepine site of the GABA-A receptor. The experiment in a line: Benzodiazepine receptor binding assay (inhibition of 3H-flunitrazepam binding). Particulars: read-out: 3H-Flunitrazepam IC50; ca. 3 nM 3H-flunitrazepam, 10-20 min at 25° C.

A word on the ED50: it is the midpoint of the dose-response relation. Low values mean greater potency, high ones weaker potency. Regarding `O=C1CCN2C(=C1C(=O)Nc1ccccc1F)Nc1cccnc12` [compound 1], the ED50 in the assay with motor coordination (IP) was 10 mg/kg; in assay [1] it was 10 mg/kg; in assay [2], more than 30 mg/kg. The minimal effective dose was more than 10 mg/kg in assay [3] (IP) and more than 30 mg/kg in assay [3] (PO).

What is called pIC50 is the IC50 on a negative log10 scale, so that one unit is a factor of ten. For `CN1C2=C(C(=O)Nc3ccccc3F)C(=O)CCN2c2ncccc21` [compound 12], the pIC50 in assay [4] was less than 6.51. Also, the minimal effective dose in assay [3] (PO) is more than 10 mg/kg.

Turning to `O=C1CCN2C(=C1C(=O)Nc1c(F)cccc1F)Nc1cnccc12` [compound 10], the ED50 in assay [1] was more than 10 mg/kg; in assay [2], more than 30 mg/kg. For the same compound, the pIC50 in assay [4] is 7.75. The minimal effective dose in assay [3] (IP) was more than 10 mg/kg; in assay [3] (PO), approximately 3 mg/kg.

With `O=C1CCn2c(nc3ncccc32)C1C(=O)Nc1c(F)cc(F)cc1F` (stereo not shown) [CP #8, 6,7-dihydro-8-keto-N-(2,4,6-trifluorophenyl)dipyrido[1,2-a:2',3'-d]imidazole-9-carboxamide], the ED50 was more than 30 mg/kg with motor coordination (IP), 10 mg/kg in assay [1] and more than 30 mg/kg in assay [2]. Besides, in assay [4], the negative-log IC50 (pIC50) is 6.66. Besides, the minimal effective dose was more than 10 mg/kg in assay [3] (IP) and more than 30 mg/kg in assay [3] (PO).

As to `COCCN1C2=C(C(=O)Nc3ccccc3F)C(=O)CCN2c2ncccc21` [compound 11], in assay [4], the pIC50 is 6.55. The minimal effective dose in assay [3] (PO) is more than 10 mg/kg.

Turning to `O=C1CCn2c(nc3ncccc32)C1C(=O)Nc1c(F)cccc1F` (stereo not shown) [CP #9, 6,7-dihydro-8-keto-N-(2,6-difluorophenyl)dipyrido[1,2-a:2',3'-d]imidazole-9-carboxamide], the ED50 with motor coordination (IP) is approximately 10 mg/kg; in assay [1] it was approximately 30 mg/kg; in assay [2], approximately 30 mg/kg. Also, the pIC50 in assay [4] was 7.52. In addition, the minimal effective dose in assay [3] (IP) and in assay [3] (PO) was more than 10 mg/kg each time.

With `O=C1CCn2c(nc3ncccc32)C1C(=O)Nc1ccccc1` (stereo not shown) [CP #6, 6,7-dihydro-8-keto-N-phenyldipyrido[1,2-a:2',3'-d]imidazole-9-carboxamide], the ED50 in the assay on motor coordination (IP) is 3 mg/kg; in assay [1], 3 mg/kg; in assay [2] it was less than 30 mg/kg. Moreover, in assay [4], the pIC50 is 8.08. Besides, the minimal effective dose in assay [3] (IP) was more than 10 mg/kg; in assay [3] (PO), 30 mg/kg.

Turning to `O=C1CCn2c(nc3cccnc32)C1C(=O)Nc1ccccc1` (stereo not shown) [CP #2, 8,9-Dihydro-7-keto-N-phenyldipyrido [1,2-a:3',2'-d] imidazole-6-carboxamide], the ED50 was more than 10 mg/kg in the assay with motor coordination (IP), more than 10 mg/kg in assay [1] and more than 30 mg/kg in assay [2]. Besides, the pIC50 in assay [4] is less than 5.36. The minimal effective dose in assay [3] (IP) is more than 10 mg/kg; in assay [3] (PO), more than 30 mg/kg.

As to `O=C1CCn2c(nc3ncccc32)C1C(=O)Nc1ccncc1` (stereo not shown) [CP #7, 6,7-dihydro-8-keto-N-(4-pyridyl)dipyrido[1,2-a:2',3'-d]imidazole-9-carboxamide], the ED50 in the assay on motor coordination (PO) was more than 10 mg/kg; in assay [1], more than 30 mg/kg; in assay [2], more than 10 mg/kg. Also, in assay [4], the pIC50 was 6.21. Further, the minimal effective dose was determined as 30 mg/kg in assay [3] (IP) and 10 mg/kg in assay [3] (PO).

On to `O=C1CCN2C(=C1C(=O)Nc1ccncc1)Nc1cccnc12` [compound 3], for which the values for the ED50 (in the assay with motor coordination (IP); in assay [1]; in assay [2]) were more than 10 mg/kg, more than 10 mg/kg and more than 30 mg/kg, respectively. In addition, the minimal effective dose in assay [3] (IP) is more than 10 mg/kg; in assay [3] (PO), more than 30 mg/kg.

Regarding `O=C1CCn2c(nc3ncccc32)C1C(=O)Nc1ccccc1F` (stereo not shown) [CP #5, 6,7-dihydro-8-keto-N-(2-fluorophenyl)dipyrido[1,2-a:2',3'-d]imidazole-9-carboxamide], the ED50 is 3 mg/kg with motor coordination (IP), 1 mg/kg in assay [1] and 10 mg/kg in assay [2]. For the same compound, the pIC50 in assay [4] is 8.46. Also, the results for the minimal effective dose in assay [3] (IP) and in assay [3] (PO) were 10 mg/kg and more than 30 mg/kg, respectively.

Take `O=C1CCN2C(=C1C(=O)Nc1c(F)cc(F)cc1F)Nc1cccnc12` [CP #4]: the ED50 in the assay on motor coordination (IP) was approximately 10 mg/kg; in assay [1], approximately 10 mg/kg; in assay [2], more than 30 mg/kg. The pIC50 in assay [4] was 5.71. The values for the minimal effective dose in assay [3] (IP) and in assay [3] (PO) were more than 10 mg/kg and more than 30 mg/kg, respectively.

For the origin of these results see patent US5968946A, “Heterocyclic derivatives useful in treating central nervous system disorders” (Ortho-McNeil Pharmaceutical, Inc., priority 1998, dated 1999).
